One may read the IC50 as the concentration at which inhibition is half-maximal. Read a high IC50 as lower potency.

One experiment has as its target Flt1(h) (Homo sapiens, UniProt P17948). The experiment can be described thus: in vitro tyrosine kinase inhibition. In kind it is biochemical. The text has this:
(§1) Several in vitro tyrosine kinase inhibition activities can be measured according to the description in Rewcastle, G W, J. Med. Chem. 1996, 39, 918-928 and Edwards M, International Biotechnology Lab 5 (3), 19-25, 1987. Oncogene, 1990, 5: 519-524. The Baculovirus Expression System: A Laboratory Guide, L. A. King 1992. Sambrook et al, 1989, Molecular cloning—A Laboratory Manual, 2nd edition, Cold Spring Harbour Laboratory Press. O'Reilly et al, 1992, Baculovirus Expression Vectors—A Laboratory Manual, W. H. Freeman and Co, New York.
(§2) Receptor tyrosine kinase can be obtained in partially purified form from A-431 cells similar to those described by Carpenter et al., J. Biol. Chem., 1979, 254, 4884, Cohen et al., J. Biol. Chem., 1982, 257, 1523 and by Braun et al., J. Biol. Chem., 1984, 259, 2051. Some of these tests can also be contracted with Millipore Upstate Ltd for screening.

In another experiment the target is Flt4(h) (Homo sapiens, UniProt P35916). The experiment can be described thus: in vitro tyrosine kinase inhibition. In kind it is biochemical.
Flt4(h), sequence (P35916 25-1363): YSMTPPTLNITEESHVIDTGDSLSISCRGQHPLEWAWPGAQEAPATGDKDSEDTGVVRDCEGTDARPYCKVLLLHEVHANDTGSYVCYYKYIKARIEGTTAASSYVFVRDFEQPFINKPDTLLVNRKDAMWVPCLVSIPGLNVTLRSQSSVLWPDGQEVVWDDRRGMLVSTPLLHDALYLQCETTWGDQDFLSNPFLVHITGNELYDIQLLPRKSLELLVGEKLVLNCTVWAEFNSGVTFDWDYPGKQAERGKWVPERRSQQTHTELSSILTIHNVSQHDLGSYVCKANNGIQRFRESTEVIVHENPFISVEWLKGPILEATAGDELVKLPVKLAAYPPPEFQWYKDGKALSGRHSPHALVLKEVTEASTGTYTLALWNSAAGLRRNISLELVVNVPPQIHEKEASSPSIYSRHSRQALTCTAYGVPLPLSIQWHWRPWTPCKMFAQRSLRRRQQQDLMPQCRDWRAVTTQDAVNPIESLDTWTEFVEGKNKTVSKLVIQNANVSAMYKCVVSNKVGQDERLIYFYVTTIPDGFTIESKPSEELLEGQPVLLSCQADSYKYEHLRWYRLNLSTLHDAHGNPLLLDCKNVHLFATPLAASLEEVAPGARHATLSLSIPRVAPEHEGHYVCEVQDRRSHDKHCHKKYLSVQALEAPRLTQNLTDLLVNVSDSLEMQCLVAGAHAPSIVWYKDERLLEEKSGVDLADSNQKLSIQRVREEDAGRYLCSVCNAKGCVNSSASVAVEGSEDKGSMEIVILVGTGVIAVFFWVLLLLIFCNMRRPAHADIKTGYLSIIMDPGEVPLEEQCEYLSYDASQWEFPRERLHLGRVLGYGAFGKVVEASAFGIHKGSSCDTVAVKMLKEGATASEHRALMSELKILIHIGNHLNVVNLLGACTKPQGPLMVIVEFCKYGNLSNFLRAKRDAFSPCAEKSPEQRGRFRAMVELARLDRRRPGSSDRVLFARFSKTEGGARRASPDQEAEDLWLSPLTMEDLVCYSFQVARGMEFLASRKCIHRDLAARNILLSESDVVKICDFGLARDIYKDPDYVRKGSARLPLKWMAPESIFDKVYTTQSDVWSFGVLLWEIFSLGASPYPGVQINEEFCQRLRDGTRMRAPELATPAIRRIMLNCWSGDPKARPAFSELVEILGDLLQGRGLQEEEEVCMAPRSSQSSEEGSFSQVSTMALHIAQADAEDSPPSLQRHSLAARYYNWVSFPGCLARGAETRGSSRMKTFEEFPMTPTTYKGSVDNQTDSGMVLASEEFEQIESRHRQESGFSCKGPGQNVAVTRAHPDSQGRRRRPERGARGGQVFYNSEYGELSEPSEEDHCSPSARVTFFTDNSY
Source text: as §1, §2

For the next experiment, the target named is PDGFRα(h) (Homo sapiens, UniProt P16234). In words: in vitro tyrosine kinase inhibition. In kind it is biochemical.
PDGFRα(h), sequence (P16234 24-1089): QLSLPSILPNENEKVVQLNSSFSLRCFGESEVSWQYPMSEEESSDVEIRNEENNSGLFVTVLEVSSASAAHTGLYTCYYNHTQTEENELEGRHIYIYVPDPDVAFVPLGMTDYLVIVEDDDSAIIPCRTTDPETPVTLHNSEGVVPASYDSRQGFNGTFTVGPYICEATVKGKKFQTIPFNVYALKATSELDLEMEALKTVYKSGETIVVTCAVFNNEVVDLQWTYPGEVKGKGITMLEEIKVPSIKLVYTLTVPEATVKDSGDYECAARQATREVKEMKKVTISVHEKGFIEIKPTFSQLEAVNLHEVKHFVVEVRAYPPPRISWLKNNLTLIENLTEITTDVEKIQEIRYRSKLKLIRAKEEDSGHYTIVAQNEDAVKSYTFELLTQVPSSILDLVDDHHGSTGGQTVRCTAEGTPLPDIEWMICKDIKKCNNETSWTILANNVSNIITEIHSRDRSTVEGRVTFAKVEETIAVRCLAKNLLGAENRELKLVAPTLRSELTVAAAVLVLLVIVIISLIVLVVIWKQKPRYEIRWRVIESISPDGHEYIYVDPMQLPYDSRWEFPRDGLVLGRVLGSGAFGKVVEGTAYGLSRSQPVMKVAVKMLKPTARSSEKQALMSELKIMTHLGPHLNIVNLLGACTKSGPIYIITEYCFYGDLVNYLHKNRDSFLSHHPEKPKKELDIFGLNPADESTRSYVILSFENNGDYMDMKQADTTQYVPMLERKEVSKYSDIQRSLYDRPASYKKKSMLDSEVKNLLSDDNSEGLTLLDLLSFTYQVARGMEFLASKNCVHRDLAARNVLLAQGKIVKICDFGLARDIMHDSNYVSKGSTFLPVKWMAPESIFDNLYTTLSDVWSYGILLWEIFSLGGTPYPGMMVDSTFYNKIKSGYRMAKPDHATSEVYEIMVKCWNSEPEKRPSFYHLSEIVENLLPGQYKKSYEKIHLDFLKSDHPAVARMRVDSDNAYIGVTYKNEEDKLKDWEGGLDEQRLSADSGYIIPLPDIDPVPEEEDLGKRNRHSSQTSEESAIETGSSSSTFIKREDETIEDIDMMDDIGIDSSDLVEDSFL
Source text: as §1, §2

Another experiment addresses cKit(h) (Homo sapiens, UniProt P10721). The experiment can be described thus: in vitro tyrosine kinase inhibition. In kind it is biochemical.
Source text: as §1, §2

A further experiment deals with c-RAF(h) (Homo sapiens, UniProt P04049). In words: in vitro kinase inhibition. The experiment is classed as biochemical.
c-RAF(h), sequence (P04049 whole entry): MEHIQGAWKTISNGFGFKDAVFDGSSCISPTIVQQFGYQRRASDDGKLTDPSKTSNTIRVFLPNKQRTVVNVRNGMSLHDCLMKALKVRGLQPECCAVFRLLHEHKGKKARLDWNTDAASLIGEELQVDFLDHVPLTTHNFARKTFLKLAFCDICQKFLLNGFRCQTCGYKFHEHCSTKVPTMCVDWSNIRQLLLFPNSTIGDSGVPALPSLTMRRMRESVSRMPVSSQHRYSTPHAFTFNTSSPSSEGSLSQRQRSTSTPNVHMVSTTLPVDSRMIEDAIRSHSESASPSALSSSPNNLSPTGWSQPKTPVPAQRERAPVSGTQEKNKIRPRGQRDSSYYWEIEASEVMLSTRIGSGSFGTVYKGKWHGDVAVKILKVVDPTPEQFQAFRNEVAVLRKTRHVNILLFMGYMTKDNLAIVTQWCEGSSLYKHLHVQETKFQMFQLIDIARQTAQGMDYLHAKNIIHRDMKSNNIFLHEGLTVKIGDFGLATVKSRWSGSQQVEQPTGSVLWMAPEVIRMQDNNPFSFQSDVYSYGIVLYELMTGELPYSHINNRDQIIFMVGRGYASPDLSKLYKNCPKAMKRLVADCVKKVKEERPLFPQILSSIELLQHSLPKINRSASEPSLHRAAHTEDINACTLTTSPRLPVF
Source text: as §1, §2

The next experiment has as its target KDR(h) (Homo sapiens, UniProt P35968). The experiment can be described thus: in vitro tyrosine kinase inhibition. In kind it is biochemical.
The test system of experiment [1] is human colon cancer HT29 xenograft. In words: animal antitumor activity, HT29 xenograft. Conditions: FIG. 1. In kind it is in vivo, mice.
The subject of experiment [2] is human liver cancer Bel-7402 xenograft. In words: animal antitumor activity, Bel-7402 xenograft. Conditions: FIG. 2. In kind it is in vivo, mice.

Flt1(h), sequence (P17948 27-1338): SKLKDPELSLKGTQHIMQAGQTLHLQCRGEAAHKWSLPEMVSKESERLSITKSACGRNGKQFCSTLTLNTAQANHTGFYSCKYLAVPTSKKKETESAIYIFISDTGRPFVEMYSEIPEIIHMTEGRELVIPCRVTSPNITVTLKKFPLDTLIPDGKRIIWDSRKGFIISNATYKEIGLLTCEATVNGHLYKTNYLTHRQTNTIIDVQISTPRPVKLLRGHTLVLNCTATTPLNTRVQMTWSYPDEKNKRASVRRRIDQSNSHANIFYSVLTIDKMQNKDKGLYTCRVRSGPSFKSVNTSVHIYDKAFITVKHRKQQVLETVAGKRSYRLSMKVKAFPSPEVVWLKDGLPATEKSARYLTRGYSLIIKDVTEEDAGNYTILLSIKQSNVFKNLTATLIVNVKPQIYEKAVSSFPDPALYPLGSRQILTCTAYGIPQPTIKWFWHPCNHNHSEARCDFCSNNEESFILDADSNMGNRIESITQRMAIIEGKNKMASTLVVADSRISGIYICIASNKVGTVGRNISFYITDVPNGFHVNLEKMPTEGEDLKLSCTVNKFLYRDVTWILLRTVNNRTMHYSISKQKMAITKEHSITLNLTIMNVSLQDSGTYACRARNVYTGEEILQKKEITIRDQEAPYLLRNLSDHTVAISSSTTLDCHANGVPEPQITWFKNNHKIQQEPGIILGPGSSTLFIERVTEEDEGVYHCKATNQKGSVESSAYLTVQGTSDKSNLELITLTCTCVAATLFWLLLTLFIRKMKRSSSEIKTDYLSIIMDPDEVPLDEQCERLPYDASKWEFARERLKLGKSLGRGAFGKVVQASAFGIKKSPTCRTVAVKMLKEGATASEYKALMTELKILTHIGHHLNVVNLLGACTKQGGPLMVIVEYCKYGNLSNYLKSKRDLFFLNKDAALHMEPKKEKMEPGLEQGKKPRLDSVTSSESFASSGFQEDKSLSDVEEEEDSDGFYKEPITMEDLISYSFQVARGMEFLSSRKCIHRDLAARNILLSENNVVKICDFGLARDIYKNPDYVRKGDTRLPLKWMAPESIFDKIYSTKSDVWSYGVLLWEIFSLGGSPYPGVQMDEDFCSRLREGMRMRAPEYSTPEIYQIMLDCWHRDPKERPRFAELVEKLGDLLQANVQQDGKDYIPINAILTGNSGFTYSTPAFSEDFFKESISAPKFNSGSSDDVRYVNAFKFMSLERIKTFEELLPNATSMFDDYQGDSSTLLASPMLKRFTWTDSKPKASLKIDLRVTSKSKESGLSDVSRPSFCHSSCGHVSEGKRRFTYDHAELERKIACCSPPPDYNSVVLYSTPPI

On to `CNC(=O)c1cccc2cc(Oc3ccnc4cc(OCC5(N)CC5)c(OC)cc34)ccc12` [AL3810], for which the IC50 on Flt1(h) was 4 nM; against Flt4(h), 2 nM; at PDGFRα(h) it was 219 nM; against cKit(h) it was 234 nM; at c-RAF(h), 293 nM; at KDR(h) it was 15 nM. Also, the “efficacy on animal model compared with SU11248” value in experiment [1] is on record as “better efficacy than SU11248”. In experiment [2], the “efficacy on animal model compared with Nexavar” value is given as “better efficacy”.

(Values after patent publication US8513283B2, “Spiro substituted compounds as angiogenesis inhibitors” (Advenchen Laboratories, LLC, priority 2007, dated 2013).)
